Where two headings read alike, the source gives them in different places.
How the values were obtained:
[1] = tested on: blasts in TP53 WT AML samples; assay: 5-day liquid culture of AML patient BM cells; format: cell-based, human
MV4-11 AML cell line = assay: Compound washout experiment in MV4-11 (CK1α, p53 and downstream events); format: cell-based; settings: 0.3 μM for 12 hours followed by washout
[2] = tested on: CD34+ cells from BM samples of healthy donors; assay: Liquid culture of CD34+ cells from healthy donors (FACS); format: cell-based, human
Procedure: CD34^+ cells isolated from BM samples of 3 TP53 WT AML donors and 3 healthy donors were treated with increasing concentrations of Compound 1 in liquid culture at times ranging from 4 hours to 5 days. […] Acute myeloid leukemia blasts sustained CK1α degradation up to 5 days in culture as assessed by fluorescence-activated cell sorting (FACS) analysis. Strikingly, p53 stabilization was sustained longer in leukemic cells (up to 48 hours) compared with normal BM cells (for 24 hours).

[3] = tested on: MV-4-11 AML xenograft model; assay: Single dose PK/PD and efficacy studies, MV-4-11 AML xenograft model; format: in vivo, mice
Procedure: (§1) The CK1α degradation activity and subsequent antitumor activity of Compound 1 in vivo was tested in two TP53 WT AML cell line-derived xenograft models. The depth and duration of CK1α degradation was dose-dependent.
Based on single dose pharmacokinetic (PK)/pharmacodynamics (PD) and efficacy studies with the MV-4-11 AML xenograft model, nearly 90% degradation of CK1α at 2 hours post-dose and 50% suppression through 16 hours a day was maintained when the tumor Compound 1 concentration was >0.1 μM. Maintenance of >0.1 μM Compound 1 in tumor, and this degree of CK1α degradation with daily dosing at 3 mg/kg, led to a 73-99% reduction in tumor burden with significant survival benefit.

[4] = tested on: MV-4-11-luc disseminated AML xenograft; assay: MV-4-11-luc disseminated AML xenograft model, tumor burden and survival; format: in vivo, mice
Procedure: as §1
In a subsequent study, MV-4-11-luc disseminated AML xenografts were treated with 2 cycles of fixed doses and varying dosing duration (5/28 days, 7/28 days and 14/28 days). […] In Kaplan-Meier survival analysis following cessation dosing, the median survival of the vehicle treated animals was 45.5 days. […] The median survival of animals treated with Compound 1 with 2 cycles of 7/28-days at 10, 30, and 50 mg/kg was 67.5 (p<0.0001), 70 (p<0.0001), and 70 (p<0.0001) days, respectively. For the animals treated with 2 cycles of 14/28-days at 3, 10 and 30 mg/kg was 69.5 (p<0.0001), 94.5 (p<0.0001) and 152 (p<0.0001) days, respectively. For 30 mg/kg with 14/28-day cycle, 4/10 animals remained tumor free at the termination of the study on day 154.

CYP2C8 = molecular target: T1, CYP2C8 (Homo sapiens, UniProt P10632); assay: CYP inhibition in human liver microsomes, CYP2C8; format: in vitro ADME
T1 construct: In human liver microsomes; from tissue; host or cells: human liver microsomes

CYP2A6 = molecular target: T2, CYP2A6 (Homo sapiens, UniProt P11509); assay: CYP inhibition in human liver microsomes, CYP2A6; format: in vitro ADME
T2 construct: In human liver microsomes; from tissue; host or cells: human liver microsomes

CYP2B6 = molecular target: T3, CYP2B6 (Homo sapiens, UniProt P20813); assay: CYP inhibition in human liver microsomes, CYP2B6; format: in vitro ADME
T3 construct: In human liver microsomes; from tissue; host or cells: human liver microsomes

CYP2E1 = molecular target: T4, CYP2E1 (Homo sapiens, UniProt P05181); assay: CYP inhibition in human liver microsomes, CYP2E1; format: in vitro ADME
T4 construct: In human liver microsomes; from tissue; host or cells: human liver microsomes

CYP1A2 = assay: CYP induction in human hepatocyte culture, CYP1A2 mRNA; format: in vitro ADME; settings: up to 50 μM for three consecutive days
[5] = tested on: human peripheral blood (PB) lymphocytes; assay: In vitro mammalian cell micronucleus test
Procedure: Compound 1 was tested in the in vitro mammalian cell micronucleus test in human peripheral blood (PB) lymphocytes in the presence and absence of a metabolic activation system, Aroclor-induced rat liver fraction (S9), for 4 hours, and in the absence of S9 for 24 hours. The highest concentration tested was 481 μg/mL. Dimethyl sulfoxide (DMSO) was used as the solvent. […] In addition, 2 lower concentrations with appropriate concentration and cytotoxicity spacing were chosen for micronucleus scoring in each regime.

[6] = Dose toxicity and toxicokinetics study in rats; format: in vivo; settings: for AUC / Cmax: both sexes; for AUC / Cmax / NOAEL: rat, in vivo, po; for NOAEL: female, oral gavage, read-out: NOAEL (females)
Procedure: Additionally, control animals were dosed with a vehicle using a combination of both dosing regimens. Recovery of test article-related effects was evaluated during a 4-week recovery period.
Animals in Regimen 1 were dosed for 7 consecutive days in each 4-week cycle for 2 cycles (0.3 or 3 mg/kg on Days 1-7 and 29-35), whereas animals in Regimen 2 were dosed twice weekly for 4 weeks (0.5 or 5 mg/kg on Days 1, 4, 8, 11, 15, 18, 22 and 25). End of dosing necropsy was performed on the day after the last dose administration. A 4-week recovery period was included to assess reversibility of findings.

[7] = 0.3 mg/kg, Regimen 1, sexes combined
[8] = 0.5 mg/kg, Regimen 2, sexes combined

T1 sequence (P10632 whole entry): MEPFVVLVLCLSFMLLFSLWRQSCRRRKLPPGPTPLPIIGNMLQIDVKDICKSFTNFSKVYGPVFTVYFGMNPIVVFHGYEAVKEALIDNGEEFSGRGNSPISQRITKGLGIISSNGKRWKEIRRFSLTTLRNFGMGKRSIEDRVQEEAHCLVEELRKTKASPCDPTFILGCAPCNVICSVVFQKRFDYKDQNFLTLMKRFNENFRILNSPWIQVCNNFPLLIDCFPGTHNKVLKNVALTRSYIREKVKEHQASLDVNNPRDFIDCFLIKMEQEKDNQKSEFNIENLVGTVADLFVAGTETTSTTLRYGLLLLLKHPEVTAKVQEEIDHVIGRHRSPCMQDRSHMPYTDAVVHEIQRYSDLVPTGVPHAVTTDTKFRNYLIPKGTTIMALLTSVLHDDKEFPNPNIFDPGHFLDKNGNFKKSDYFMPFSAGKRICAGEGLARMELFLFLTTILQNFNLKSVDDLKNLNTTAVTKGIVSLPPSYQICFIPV
T2 sequence (P11509 whole entry): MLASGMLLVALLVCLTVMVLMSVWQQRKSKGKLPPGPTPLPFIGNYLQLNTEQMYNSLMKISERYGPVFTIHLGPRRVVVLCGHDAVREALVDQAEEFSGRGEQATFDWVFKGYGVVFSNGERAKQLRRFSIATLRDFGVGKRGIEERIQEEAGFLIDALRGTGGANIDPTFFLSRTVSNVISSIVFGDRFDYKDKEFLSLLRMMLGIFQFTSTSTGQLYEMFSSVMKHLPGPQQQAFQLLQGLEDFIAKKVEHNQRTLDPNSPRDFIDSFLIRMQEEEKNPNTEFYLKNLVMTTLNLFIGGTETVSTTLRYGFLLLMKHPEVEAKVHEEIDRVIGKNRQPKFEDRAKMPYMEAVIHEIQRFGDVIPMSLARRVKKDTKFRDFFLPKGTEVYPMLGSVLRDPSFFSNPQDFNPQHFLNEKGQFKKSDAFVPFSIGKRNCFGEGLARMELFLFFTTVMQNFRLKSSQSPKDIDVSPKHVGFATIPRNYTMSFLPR
T3 sequence (P20813 whole entry): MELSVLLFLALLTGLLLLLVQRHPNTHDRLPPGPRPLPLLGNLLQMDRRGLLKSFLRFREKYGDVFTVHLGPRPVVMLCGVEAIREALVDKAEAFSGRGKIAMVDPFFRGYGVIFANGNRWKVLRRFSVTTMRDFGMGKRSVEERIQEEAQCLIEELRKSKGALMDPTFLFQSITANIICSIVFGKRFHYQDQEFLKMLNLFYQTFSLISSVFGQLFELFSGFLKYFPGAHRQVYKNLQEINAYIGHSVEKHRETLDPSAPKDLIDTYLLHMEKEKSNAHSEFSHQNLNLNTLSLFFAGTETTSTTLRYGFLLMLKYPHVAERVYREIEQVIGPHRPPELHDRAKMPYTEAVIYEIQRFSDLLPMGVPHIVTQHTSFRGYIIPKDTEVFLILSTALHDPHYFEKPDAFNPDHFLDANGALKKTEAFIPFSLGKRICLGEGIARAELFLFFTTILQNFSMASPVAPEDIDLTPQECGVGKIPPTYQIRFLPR
T4 sequence (P05181 whole entry): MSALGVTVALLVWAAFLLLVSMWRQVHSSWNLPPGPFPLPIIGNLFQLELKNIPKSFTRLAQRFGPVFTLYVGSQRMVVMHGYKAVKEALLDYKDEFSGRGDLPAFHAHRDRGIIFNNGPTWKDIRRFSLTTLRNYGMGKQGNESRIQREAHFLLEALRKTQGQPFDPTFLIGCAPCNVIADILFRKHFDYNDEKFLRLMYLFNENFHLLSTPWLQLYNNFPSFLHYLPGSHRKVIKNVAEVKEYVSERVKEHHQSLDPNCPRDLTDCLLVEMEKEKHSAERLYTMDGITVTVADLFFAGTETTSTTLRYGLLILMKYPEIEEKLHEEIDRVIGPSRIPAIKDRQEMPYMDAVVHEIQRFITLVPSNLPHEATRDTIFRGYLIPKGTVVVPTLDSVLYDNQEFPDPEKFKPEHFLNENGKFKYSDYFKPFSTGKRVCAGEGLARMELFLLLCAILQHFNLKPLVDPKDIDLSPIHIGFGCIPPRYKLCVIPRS

## O=C1CC[C@H](N2Cc3cc(C(=O)N[C@H](c4ncccc4Cl)C(F)(F)F)ccc3C2=O)C(=O)N1 [Compound 1, N-((R)-1-(3-chloropyridin-2-yl)-2,2,2-trifluoroethyl)-2-((S)-2,6-dioxopiperidin-3-yl)-1-oxoisoindoline-5-carboxamide]
[1]; 5 days in liquid culture, all TP53 WT AML samples tested, vs vehicle control
  total blast numbers: deeply decreased
[1]; liquid culture, apoptosis and cell cycle arrest, all samples
  IC50: nanomolar range
MV4-11 AML cell line
  persistence of p53 downstream events (p21, phosphor-Ser139-Histone H2A.X, caspase 3 cleavage) after washout: at least 10 hours
[2]; normal BM cells
  duration of sustained p53 stabilization: 24 h
[2]; normal cells
  cellular outcome: Cycle arrest
[3]; 2 hours post-dose, tumor concentration >0.1 μM
  degradation of CK1α: ~90%
[3]; AML xenograft tumors
  CK1α degradation in AML xenograft tumors: significantly degraded
[3]; daily dosing at 3 mg/kg
  reduction in tumor burden: 73-99%
[3]; maintained through 16 hours a day, tumor concentration >0.1 μM
  suppression of CK1α: 50%
[4]; 30 mg/kg, 14/28-day cycle, day 154
  animals remaining tumor free at termination of the study: 4/10
[4]; 2 cycles of 5/28-days at 50 mg/kg, vehicle 45.5 days
  median survival: 68.5 days
[4]; 2 cycles of 7/28-days at 10 mg/kg
  median survival: 67.5 days
[4]; 2 cycles of 7/28-days at 30 mg/kg
  median survival: 70 days
[4]; 2 cycles of 7/28-days at 50 mg/kg
  median survival: 70 days
[4]; 2 cycles of 14/28-days at 3 mg/kg
  median survival: 69.5 days
[4]; 2 cycles of 14/28-days at 10 mg/kg
  median survival: 94.5 days
[4]; 2 cycles of 14/28-days at 30 mg/kg
  median survival: 152 days
[4]; mice with disseminated MV-4-11 AML, dose-, schedule- and duration-dependent
  tumor burden: significantly reduced
CYP2C8; CYP2C8, 30-minute preincubation with NADPH
  time-dependent inhibition: not a time-dependent inhibition
CYP2C8; human liver microsomes, CYP2C8
  IC50: > 30 µM
CYP2A6; CYP2A6, 30-minute preincubation with NADPH
  time-dependent inhibition: not a time-dependent inhibition
CYP2A6; human liver microsomes, CYP2A6
  inhibitory effect: ≤ 25%
CYP2B6; CYP2B6, 30-minute preincubation with NADPH
  time-dependent inhibition: not a time-dependent inhibition
CYP2B6; human liver microsomes, CYP2B6
  inhibitory effect: ≤ 25%
CYP2E1; CYP2E1, 30-minute preincubation with NADPH
  time-dependent inhibition: not a time-dependent inhibition
CYP2E1; human liver microsomes, CYP2E1
  inhibitory effect: ≤ 25%
CYP1A2
  mRNA expression of CYP1A2: no dose-dependent increases
[5]; 4 hours with and without S9, 24 hours without S9, compared with negative controls
  proportion of micronucleated binucleate cells (MBC): did not cause any statistically significant increases
[5]; human, 24 h, 120 μg/mL
  cytotoxicity based on CBPI: approximately 55%
[6]; Regimen 1
  severely toxic dose in 10% of the animals (STD 10): 0.3 mg/kg
[6]; Regimen 2
  severely toxic dose in 10% of the animals (STD 10): 0.5 mg/kg
[6]; both regimens
  NOAEL (males): not identified
[6]; [7]
  AUC: 761 ng·h/mL
  Cmax: 225 ng/mL
[6]; [8]
  AUC: 1200 ng·h/mL
  Cmax: 263 ng/mL
[6]; Regimen 1 (Days 1-7 and 29-35)
  NOAEL: 0.3 mg/kg
[6]; Regimen 2 (twice weekly for 4 weeks)
  NOAEL: 0.5 mg/kg

Reference: US20220387405A1, “METHODS OF TREATMENT WITH N-((R)-1-(3-CHLOROPYRIDIN-2-YL)-2,2,2-TRIFLUOROETHYL)-2-((S)-2,6-DIOXOPIPERIDIN-3-YL)-1-OXOISOINDOLINE-5-CARBOXAMIDE” (CELGENE CORPORATION, priority 2021, published 2022)
